Measured values from the NIST ThermoML archive (doi:10.1016/j.jct.2006.05.008).

Experiment: molar heat capacity at constant pressure; wn = mass fraction of the nth substance listed
Conditions: Small (less than 1 g) adiabatic calorimetry

CCCCn1cc[n+](C)c1.[Br-] [1-butyl-3-methylimidazolium bromide] + O
Crystal
Conditions	molar heat capacity at constant pressure [J/K/mol]
80.69 K, w2 = 0.00482	98.89
80.93 K, w2 = 0.0051	98.9
81.42 K, w2 = 0.0169	89.1
83.2 K, w2 = 0.00482	100.65
83.26 K, w2 = 0.0051	100.45
83.41 K, w2 = 0.0169	90.19
84.28 K, w2 = 0.0495	71.58
85.41 K, w2 = 0.0169	91.5
85.62 K, w2 = 0.0051	101.93
85.71 K, w2 = 0.00482	102.22
86.99 K, w2 = 0.0495	72.97
87.41 K, w2 = 0.0169	92.8
87.99 K, w2 = 0.0051	103.55
88.22 K, w2 = 0.00482	103.95
89.41 K, w2 = 0.0169	94.12
89.64 K, w2 = 0.0495	74.29
90.39 K, w2 = 0.0051	105.19
90.73 K, w2 = 0.00482	105.63
91.42 K, w2 = 0.0169	95.27
92.3 K, w2 = 0.0495	75.61
92.8 K, w2 = 0.0051	106.81
93.24 K, w2 = 0.00482	107.29
93.42 K, w2 = 0.0169	96.43
94.99 K, w2 = 0.0495	76.9
95.24 K, w2 = 0.0051	108.32
95.42 K, w2 = 0.0169	97.66
95.77 K, w2 = 0.00482	108.86
97.43 K, w2 = 0.0169	98.68
97.68 K, w2 = 0.0051	109.8
97.69 K, w2 = 0.0495	78.16
98.29 K, w2 = 0.00482	110.42
99.44 K, w2 = 0.0169	99.85
100.14 K, w2 = 0.0051	111.32
100.41 K, w2 = 0.0495	79.41
100.82 K, w2 = 0.00482	111.94
101.45 K, w2 = 0.0169	101.05
102.61 K, w2 = 0.0051	112.8
103.15 K, w2 = 0.0495	80.66
103.35 K, w2 = 0.00482	113.4
103.46 K, w2 = 0.0169	102.17
105.09 K, w2 = 0.0051	114.19
105.47 K, w2 = 0.0169	103.12
105.88 K, w2 = 0.00482	114.89
105.9 K, w2 = 0.0495	81.82
107.49 K, w2 = 0.0169	104.29
107.59 K, w2 = 0.0051	115.72
108.42 K, w2 = 0.00482	116.33
108.67 K, w2 = 0.0495	83.08
109.51 K, w2 = 0.0169	105.26
110.1 K, w2 = 0.0051	117.14
110.97 K, w2 = 0.00482	117.75
111.45 K, w2 = 0.0495	84.27
111.54 K, w2 = 0.0169	106.2
112.61 K, w2 = 0.0051	118.54
113.51 K, w2 = 0.00482	119.17
113.57 K, w2 = 0.0169	107.35
114.24 K, w2 = 0.0495	85.5
115.14 K, w2 = 0.0051	119.96
115.6 K, w2 = 0.0169	108.36
116.06 K, w2 = 0.00482	120.61
117.04 K, w2 = 0.0495	86.65
117.63 K, w2 = 0.0169	109.39
117.68 K, w2 = 0.0051	121.3
118.63 K, w2 = 0.00482	121.93
119.66 K, w2 = 0.0169	110.42
119.84 K, w2 = 0.0495	87.83
120.23 K, w2 = 0.0051	122.75
121.18 K, w2 = 0.00482	123.35
121.69 K, w2 = 0.0169	111.46
122.66 K, w2 = 0.0495	89.01
122.78 K, w2 = 0.0051	124.09
123.73 K, w2 = 0.0169	112.39
123.74 K, w2 = 0.00482	124.71
125.34 K, w2 = 0.0051	125.46
125.48 K, w2 = 0.0495	90.15
125.77 K, w2 = 0.0169	113.34
126.3 K, w2 = 0.00482	126.04
127.81 K, w2 = 0.0169	114.42
127.91 K, w2 = 0.0051	126.77
128.32 K, w2 = 0.0495	91.34
128.86 K, w2 = 0.00482	127.4
129.85 K, w2 = 0.0169	115.33
130.48 K, w2 = 0.0051	128.21
131.16 K, w2 = 0.0495	92.52
131.42 K, w2 = 0.00482	128.75
131.9 K, w2 = 0.0169	116.36
133.06 K, w2 = 0.0051	129.58
133.95 K, w2 = 0.0169	117.4
134 K, w2 = 0.00482	130.13
134 K, w2 = 0.0495	93.65
135.64 K, w2 = 0.0051	131
136 K, w2 = 0.0169	118.35
136.57 K, w2 = 0.00482	131.47
136.85 K, w2 = 0.0495	94.81
138.05 K, w2 = 0.0169	119.43
139.14 K, w2 = 0.00482	132.79
139.19 K, w2 = 0.0051	132.51
139.7 K, w2 = 0.0495	95.99
140.1 K, w2 = 0.0169	120.24
141.87 K, w2 = 0.0051	133.88
142.16 K, w2 = 0.0169	121.29
142.55 K, w2 = 0.0495	97.17
143.39 K, w2 = 0.00482	135
144.23 K, w2 = 0.0169	122.36
144.46 K, w2 = 0.0051	135.42
145.41 K, w2 = 0.0495	98.38
145.73 K, w2 = 0.00482	136.26
146.29 K, w2 = 0.0169	123.43
147.05 K, w2 = 0.0051	136.72
148.27 K, w2 = 0.0495	99.58
148.31 K, w2 = 0.00482	137.61
148.35 K, w2 = 0.0169	124.38
149.65 K, w2 = 0.0051	138.06
150.42 K, w2 = 0.0169	125.3
150.89 K, w2 = 0.00482	138.87
151.13 K, w2 = 0.0495	100.83
152.25 K, w2 = 0.0051	139.46
152.48 K, w2 = 0.0169	126.38

101.3 kPa, Glass, w2 = 0.00482
Conditions	molar heat capacity at constant pressure [J/K/mol]
82.79 K	103.56
85.01 K	105.32
87.51 K	107.36
90.01 K	109.3
92.52 K	111.32
95.02 K	113.23
99.79 K	116.7
102.06 K	118.31
104.58 K	120.07
107.1 K	121.78
109.63 K	123.51
112.16 K	125.21
114.69 K	126.86
117.23 K	128.48
119.76 K	130.09
122.3 K	131.74
124.85 K	133.4
127.39 K	135.01
129.94 K	136.58
132.49 K	138.2
135.04 K	139.78
137.59 K	141.4
140.15 K	142.95
142.71 K	144.57
145.27 K	146.31
147.83 K	147.89
150.39 K	149.45
